Reference: US10209240B2, “Predicting human developmental toxicity of pharmaceuticals using human stem-like cells and metabolomic ratios” (STEMINA BIOMARKER DISCOVERY, INC., priority 2012, dated 2019)
Read-outs that look alike come from different tables or passages of the source.

What was measured:
Rodent = conditions: training and test set; cited from earlier work
WA09 hES cells [1] = conditions: for Teratogenicity Potential (μM) Cell Viability: human, 72 h
rat = conditions: cited from earlier work
Rabbit = conditions: training and test set; cited from earlier work
Humans = conditions: cited from earlier work; for Humans (known human developmental toxicity): training and test set
[2] = summarized from TERIS and Briggs et al. 2011, cited from earlier work
[3] = therapeutic peak plasma in vivo concentration, human, cited from earlier work
WA09 hES cells [4] = assay: Phase 2 targeted biomarker assay, ornithine/cystine ratio, 9-point dose response; conditions: for Teratogenicity Potential (μM) O/C Ratio: human, 72 h
Method in brief: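 WA09 hES cells (≤ passage 40), plated as single cells at 100,000/well on Matrigel in mTeSR1 with 10 μM Y27632, dosed 24 h later with nine 3-fold dilutions, 0.04–300 μM, 0.1% DMSO, for 72 h. Final-24 h spent medium, spiked with 13C6-arginine and filtered (<10 kDa), analysed by LC-HRMS; viability by CellTiter-Fluor.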

zebrafish = conditions: training and test set; weak/moderate and strong teratogens both labeled teratogen; cited from earlier work
[5] = test system: mouse embryonic stem cell; conditions: training and test set; weak/moderate and strong teratogens both labeled teratogen; cited from earlier work
rat whole embryo = conditions: training and test set; weak/moderate and strong teratogens both labeled teratogen; cited from earlier work
hES cells [6] = assay: devTOX computational model predictions (Version 2.0, Version 2.1) from hES cell metabolomics; type: cell-based, human; conditions: single dose per treatment (Dose column)
Excerpt: The selection process weighted the predictive capacity of a feature, overall intensity, and peak shape to identify very well behaved features/metabolites that could be measured by targeted LC-MS or even by other detection systems.
This simplified model is based on a ratio of the reference treatment (DMSO) normalized values of ADMA and cystine.

[7] = Solubility in DMSO for stock solutions; conditions: at the stock concentrations used in this study
Procedure: Phase I hES Cell Compound Exposure. hES cells were treated with a test compound at a single concentration equivalent to the compound's published therapeutic Cmax. […] This was done to ensure that enough cells were present at the time of sample collection to provide a signal for LC-HRMS analysis. For test compound exposure, all compound stock solutions, with the exception of valproic acid, were made with DMSO (Sigma-Aldrich). […] Each 96-well plate included media controls with and without test compound, 0.1% DMSO solvent control cells and cells exposed to a single concentration of eight different test compounds (FIG. 1A). Media controls were included on each plate to assess the impact of test compound on the sample matrix. hES cells were exposed to the test compound for 72 hours, with media and test compound replacement every 24 hours. Cells were monitored throughout the treatment period to ensure that no differentiation was occurring. After 72 hours of treatment, the spent media from the final 24-hour treatment period was collected and added to acetonitrile (Sigma-Aldrich, final acetonitrile concentration 40%), to halt metabolic processes and precipitate proteins from solution. Individual wells from each 96-well plate were collected and analyzed as separate samples. These samples were then stored at −80° C. until prepared for LC-HRMS analysis. Cell viability was assessed using the CellTiter-Fluor Cell Viability Assay as per the manufacturer's instructions (Promega, Madison, Wis.). […]
Phase 2 hES Cell Compound Exposure. […] Cell viability was assessed using the CellTiter-Fluor Cell Viability Assay. A quality control step was included with criteria that the CV of the measured viability RFU of the DMSO control cells could not exceed 10% for a plate to undergo LC-HRMS analysis. […]

hES cells [8] = assay: ADMA/cystine ratio simplified predictive model in hES cell spent media; type: cell-based, human; conditions: single dose per treatment; ratios less than 0.9 indicate teratogenicity
Method in brief: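 hES cell spent media were analysed for ADMA and cystine, each normalized to the DMSO reference, and their ratio formed. Each value is the median of independent blocks (6 reps each). A ratio cutoff of 0.9 classifies teratogens versus non-teratogens.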

SMILES | Rodent prediction (Rodent) | Viability Prediction (WA09 hES cells [1]) | Teratogenicity Potential (μM) Cell Viability (WA09 hES cells [1]) [µM] | Rabbit prediction (Rabbit) | Humans (known human developmental toxicity) (Humans) | Preclinical in vivo and known human developmental effects ([2]; test set compounds) | Cmax ([3]; test set) [µM] | O/C Ratio Prediction (WA09 hES cells [4]) | Targeted Biomarker Assay prediction (WA09 hES cells [4]) | Teratogenicity Potential (μM) O/C Ratio (WA09 hES cells [4]) [µM] | ZET prediction (zebrafish) | mEST prediction [5] | also measured
CS(=O)(=O)CCNCc1ccc(-c2ccc3ncnc(Nc4ccc(OCc5cccc(F)c5)c(Cl)c4)c3c2)o1 [Lapatinib] | TER | NON | 20.8 | TER | TER | Skeletal, embryo toxicity^c | 4.2 | NON | NON | 29 |  |  | Exposure level causing rat pup mortality relative to human clinical exposure based on AUC (rat; given during organogenesis, Briggs et al. 2011): about 3.3 times
CC[C@H](C)C(=O)O[C@H]1C[C@@H](C)C=C2C=C[C@H](C)[C@H](CC[C@@H]3C[C@@H](O)CC(=O)O3)[C@H]21 [Lovastatin] | TER | NON | 4.1 | NON | TER | Skeletal, embryo toxicity^c | 0.02 | NON | NON | 1.3 | TER^d | TER^m | Cmax (rat; in vivo, 100 mg/kg/day): ~1500 nM; lowest observed adverse effect level (LOAEL) (rat; in vivo): 100 mg/kg body weight per day
CCCC(CCC)C(=O)O [Valproic Acid] | TER | NON | 1113.7 | TER^u | TER |  |  | TER | TER | 90.8 | TER^e,n | TER^b,i | WEC prediction (rat whole embryo): TER^f,j; Model Predictions Version 2.0 (hES cells [6]): Ter; Model Predictions Version 2.1 (hES cells [6]): Ter; Solubility in DMSO (words) ([7]; listed as Valproic acid): insoluble in DMSO; Solubility in DMSO (words) ([7]; listed as valproic acid): completely insoluble in DMSO; Known Effect (Humans; validation and test set treatments of Example 2): Ter; Model Predictions ADMA/Cystine (hES cells [8]): Ter; Preclinical in vivo and known human developmental effects ([2]; training set compounds): Central nervous system,; Cmax ([3]; training set): 1000 µM; Change in the o/c ratio, also relative to cytotoxicity (WA09 hES cells [4]): marked change in the o/c ratio at exposure levels well before cytotoxicity is observed
